Measured values from patent publication US20100311798A1, “2-AMINOOXAZOLINES AS TAAR1 LIGANDS” (priority 2009, published 2010).
pKd, pKi: −log10 of the molar value.

Molecular target: mouse TAAR1 (Mus musculus, UniProt Q923Y8)
Experiment: Radioligand binding to TAAR1 in membranes of stably transfected HEK293 cells

mouse TAAR1, sequence (Q923Y8 whole entry): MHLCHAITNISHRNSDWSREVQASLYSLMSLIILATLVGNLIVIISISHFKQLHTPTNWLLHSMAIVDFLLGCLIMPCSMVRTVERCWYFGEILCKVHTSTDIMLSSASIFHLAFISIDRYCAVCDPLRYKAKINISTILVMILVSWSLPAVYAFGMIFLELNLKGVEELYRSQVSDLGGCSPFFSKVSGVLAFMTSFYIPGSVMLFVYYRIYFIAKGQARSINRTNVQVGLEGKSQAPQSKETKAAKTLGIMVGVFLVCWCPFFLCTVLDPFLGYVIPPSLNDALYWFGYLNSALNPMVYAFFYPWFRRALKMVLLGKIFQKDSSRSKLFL

c1ccc2c(c1)CCCC2C1=NCCN1 (racemic) [reference compound]
pKd: 7.22

CC1OC(N)=N[C@H]1CCc1ccccc1 (single isomer, unassigned) [Example 8]
pKi: 8.77

CC1OC(N)=N[C@H]1Cc1ccccc1 (single isomer, unassigned) [Example 12]
pKi: 6.80

C[C@@H]1OC(N)=N[C@@H]1CCc1ccccc1 [Example 7, (4R,5S)-5-Methyl-4-phenethyl-4,5-dihydro-oxazol-2-ylamine]
pKi: 7.56

C[C@H]1OC(N)=N[C@H]1CCc1ccccc1 [Example 8a, (4S,5R)-5-methyl-4-phenethyl-4,5-dihydro-oxazol-2-ylamine]
pKi: 8.51

CCC1OC(N)=N[C@H]1CCc1ccccc1 (stereo partly drawn) [Example 9, (S)-5-Ethyl-4-phenethyl-4,5-dihydro-oxazol-2-ylamine]
pKi: 7.77

C[C@H]1OC(N)=N[C@H]1CCCc1ccccc1 [Example 11, (4S,5R)-5-Methyl-4-(3-phenyl-propyl)-4,5-dihydro-oxazol-2-ylamine]
pKi: 9.05

C[C@@H]1OC(N)=N[C@H]1CCCc1ccccc1 [Example 11a, (4S,5S)-5-methyl-4-(3-phenyl-propyl)-4,5-dihydro-oxazol-2-ylamine]
pKi: 8.24

C[C@H]1OC(N)=N[C@H]1Cc1ccccc1 [Example 12a, (4S,5R)-4-benzyl-5-methyl-4,5-dihydro-oxazol-2-ylamine]
pKi: 6.76

C[C@@H]1OC(N)=N[C@H]1CCC1CCCCC1 [Example 13, (4S,5S)-4-(2-Cyclohexyl-ethyl)-5-methyl-4,5-dihydro-oxazol-2-ylamine]
pKi: 7.88

C[C@H]1OC(N)=N[C@H]1CCC1CCCCC1 [Example 13a, (4S,5R)-4-(2-cyclohexyl-ethyl)-5-methyl-4,5-dihydro-oxazol-2-ylamine]
pKi: 7.28

C[C@H]1OC(N)=N[C@H]1CCc1ccc(Cl)cc1 [Example 14, (4S,5R)-4-[2-(4-Chloro-phenyl)-ethyl]-5-methyl-4,5-dihydro-oxazol-2-ylamine]
pKi: 9.15

C[C@@H]1OC(N)=N[C@H]1CCc1ccc(Cl)cc1 [Example 14a, (4S,5S)-4-[2-(4-chloro-phenyl)-ethyl]-5-methyl-4,5-dihydro-oxazol-2-ylamine]
pKi: 8.74

C[C@H]1OC(N)=N[C@H]1CCc1ccc(Cl)c(Cl)c1 [Example 15, (4S,5R)-4-[2-(3,4-Dichloro-phenyl)-ethyl]-5-methyl-4,5-dihydro-oxazol-2-ylamine]
pKi: 9.22

C[C@@H]1OC(N)=N[C@H]1CCc1ccc(Cl)c(Cl)c1 [Example 15a, (4S,5S)-4-[2-(3,4-dichloro-phenyl)-ethyl]-5-methyl-4,5-dihydro-oxazol-2-ylamine]
pKi: 8.10

C[C@H]1OC(N)=N[C@H]1CCCc1ccc(Cl)cc1 [Example 17, (4S,5R)-4-[3-(4-Chloro-phenyl)-propyl]-5-methyl-4,5-dihydro-oxazol-2-ylamine]
pKi: 9.52
